Where a SMILES comes first, the peptide text is derived from it. The star is where a group is joined. Adamantane1carbonyl = O=C(C12CC3CC(CC(C3)C1)C2)*; {FITC} = fluorescein (FITC) label; Ad = adamantane
Key:
HUH-7 cells = assay: FITC-Oligo uptake by HUH-7 cells after post-complexation pegylation, FACS (Example 41); format: cell-based; conditions: 3+/− charge ratio, 1:1 PEG to cyclodextrin, 15 minute incubation
Procedure: Step 1: Transfection mixtures were prepared as follows: An equal volume of cationic, 12 was added to 3 μg of FITC-Oligos (0.1 μg/μL in water) at a 3+/−charge ratio of polymer to DNA. To the complexes was added free PEG or Ad-PEG5000 (as prepared in Example 40) at a 1:1 PEG to cyclodextrin ratio.
Step 2. HUH-7 cells were plated at 3×10^5 cells/well in 6 well plates and maintained in 4 mLs of DMEM+10% FBS+Antibiotic/Antimycotic for 24 hours. After 24 hours, the cells were washed with PBS and 1 mL of Optimem containing the transfection mixtures of Step 1 was added to the cells. After a 15 minute incubation, the transfection media was removed, the cells were washed with PBS and 1 mL of Optimem was added to each well. The cells were incubated for another 30 minutes at 37° C. The cells were then washed with Cell Scrub Buffer (Gene Therapy Systems) to remove surface-associated complexes and PBS and then detached from the wells by trypsin treatment. The cells were then prepared and analyzed by FACS analysis for FITC-Oligo uptake. The modification of the complexes by Ad-PEG5000 decreases uptake of the FITC-Oligo/polymer complexes.

BHK-21 cells = assay: Toxicity of GALA / GALA-Ad compositions by total protein of cell lysates (Example 35); format: cell-based; conditions: peptide added to 12/pGL-CV3 5+/−, 48 hours after transfection
Procedure: The toxicity of GALA and GALA-Ad modified compositions was determined by measuring the protein concentrations of the cell lysates obtained in the transfection experiments. BHK-21 cells were transfected with 1 μg of pGL-CV3 complexed with 12 at 5+/−charge ratio. Prior to transfection, various ratios of GALA and GALA-Ad were added to the complexes. Cell survival for transfections in the presence of GALA (solid bars) and GALA-Ad (white bars) was determined by assaying for total protein concentrations 48 hours after transfection and normalizing each sample with protein levels for untransfected cells. The protein concentrations are reported as the mean±SD of three replicates were averaged and divided by the average protein concentration of cells transfected with 12/pGL-CV3 compositions alone and reported as fraction cell survival (FIG. 7).

HepG2 cells = assay: Galactose-mediated luciferase transfection of HepG2 hepatoma cells (Example 49); format: cell-based; conditions: for transfection of HepG2 cells: 12/pCMV-Luc, 2 CD:1 PEG
Procedure: HepG2 cells were plated in 24-well plates at 50,000 cells/well. 1 μg of pCMV-Luc was contacted with an equal volume of 12 and modified as indicated below. Modification with PEG-containing complexing agents was done at a 2:1 CD:PEG ratio, where CD represents the cyclodextrins in 12.
200 μL of Optimem was added to each transfection mixture and transferred to each well of cells. 4 hours after transfection, 800 μL of complete media was added to each well. The media was removed, cells washed with PBS, and 1 mL of complete media added to each well 24 hours after transfection. 48 hours after transfection cells were washed with PBS, lysed and analyzed for luciferase activity. The described transfection procedure was also executed in the presence of 1 mM glucose or 1 mM galactose as a competitive inhibitor.

[1] = Zeta potential of particulate composites modified with PEG-peptide-Ad agents (Example 49); format: physicochemical; conditions: 12/pCMV-Luc, 2 CD:1 PEG
[2] = Zeta potential of Tf-modified polyplexes (Example 58); format: physicochemical; conditions: 12/DNA 3+/−
Procedure: An equivolume aliquot of 12 was added to an aliquot of plasmid DNA ([…], 0.1 mg/mL in water) at a 3+/−charge ratio to form the particulate composite. Holo-transferrin or holo-Tf-PEG-Ad (17 mg/mL in water) was then added to the particulate composite. The particles were diluted by the addition of 1.2 mL of water and zeta potential determined by measurements on a ZetaPals dynamic light scattering instrument (Brookhaven Instruments). The unmodified holo-transferrin associates with the particulate composites by electrostatic interactions. […] The holo-Transferrin-PEG-Ad (designated Tf-PEG-Ad in FIG. 25) is likely to associate to the particulate composites by both electrostatic and inclusion compound interactions. Therefore, there is a higher association of holo-Tf-PEG-Ad with the particles, as evidenced by the continued decrease in zeta potential of the modified particles with higher concentrations of holo-Tf-PEG-Ad. At 2 nmol Tf/μg, particulate composites modified with holo-Tf-PEG-Ad are negatively charged (zeta potential ˜−7 mV).

## 5′-FITC-ACT GCT TAC CAG GGA TTTCAG TGC A-3′ (DNA ACTGCTTACCAGGGATTTCAGTGCA; DNA, 5' {FITC}, backbone and methylation of C not given here) [FITC-Oligo]
HUH-7 cells
  Percent Transfected: 0%

## CC(C)C[C@H](NC(=O)[C@H](C)NC(=O)[C@H](CCC(=O)O)NC(=O)[C@H](CC(C)C)NC(=O)[C@H](C)NC(=O)[C@H](CCC(=O)O)NC(=O)[C@H](C)NC(=O)[C@H](CC(C)C)NC(=O)[C@H](C)NC(=O)[C@H](CCC(=O)O)NC(=O)[C@H](C)NC(=O)[C@H](CC(C)C)NC(=O)[C@H](Cc1c[nH]cn1)NC(=O)[C@H](CCC(=O)O)NC(=O)[C@H](C)NC(=O)[C@H](CC(C)C)NC(=O)[C@H](C)NC(=O)[C@H](CCC(=O)O)NC(=O)[C@H](C)NC(=O)[C@H](CC(C)C)NC(=O)[C@H](C)NC(=O)[C@H](CCC(=O)O)NC(=O)[C@H](C)NC(=O)[C@H](CC(C)C)NC(=O)[C@H](C)NC(=O)[C@H](C)NC(=O)[C@H](CCC(=O)O)NC(=O)[C@@H](N)Cc1c[nH]c2ccccc12)C(=O)N[C@@H](C)C(=O)N[C@@H](C)C(=O)O [GALA, WEAALAEALAEALAEHLAEALAEALEALAA, reference compound] (H-WEAALAEALAEALAEHLAEALAEALEALAA-OH)
BHK-21 cells
  toxicity to BHK-21 cells (fraction cell survival): no observable toxicity

## CC(C)C[C@H](NC(=O)[C@H](C)NC(=O)[C@H](CCC(=O)O)NC(=O)[C@H](CC(C)C)NC(=O)[C@H](C)NC(=O)[C@H](CCC(=O)O)NC(=O)[C@H](C)NC(=O)[C@H](CC(C)C)NC(=O)[C@H](C)NC(=O)[C@H](CCC(=O)O)NC(=O)[C@H](C)NC(=O)[C@H](CC(C)C)NC(=O)[C@H](Cc1c[nH]cn1)NC(=O)[C@H](CCC(=O)O)NC(=O)[C@H](C)NC(=O)[C@H](CC(C)C)NC(=O)[C@H](C)NC(=O)[C@H](CCC(=O)O)NC(=O)[C@H](C)NC(=O)[C@H](CC(C)C)NC(=O)[C@H](C)NC(=O)[C@H](CCC(=O)O)NC(=O)[C@H](C)NC(=O)[C@H](CC(C)C)NC(=O)[C@H](C)NC(=O)[C@H](C)NC(=O)[C@H](CCC(=O)O)NC(=O)[C@H](Cc1c[nH]c2ccccc12)NC(=O)C12CC3CC(CC(C3)C1)C2)C(=O)N[C@@H](C)C(=O)N[C@@H](C)C(=O)O [GALA-Ad] (Adamantane1carbonyl-WEAALAEALAEALAEHLAEALAEALEALAA-OH)
BHK-21 cells
  toxicity to BHK-21 cells (fraction cell survival): no observable toxicity

## Galactose-PEG3400-CAEAEAEAE-Ad [Gal-PEG-Pep-Ad]
HepG2 cells; 1 mM galactose as competitive inhibitor
  transfection in the presence of free galactose: inhibited
HepG2 cells
  transfection of HepG2 cells: enhanced transfection

## Glucose-PEG3400-CAEAEAEAE-Ad [Glu-PEG-Pep-Ad]
HepG2 cells
  transfection of HepG2 cells: do not readily transfect cells

## PEG5000-CAEAEAEAE-Ad [PEG-Pep-Ad]
HepG2 cells
  transfection of HepG2 cells: do not readily transfect cells
[1]
  zeta potential (sign): negative

## Tf-PEG-Ad: human transferrin coupled via lysine groups to Vinylsulfone-PEG3400-Ad
[2]; 2 nmol Tf/μg
  zeta potential: ~−7 mV

## holo-transferrin: iron-loaded unmodified transferrin
[2]; 2 nmol Tf/μg DNA
  particle charge: approach neutrality

Reference: US8092833B2, “Compositions containing inclusion complexes” (California Institute of Technology, priority 2000, dated 2012)
